Experiment: xn = mol fraction of the nth substance listed
Conditions: 102 kPa

O=C(O)C(F)(F)C(F)(F)C(F)(F)C(F)(F)F + CC[n+]1ccn(C)c1.[Cl-]
viscosity [mPa·s]
Conditions | x2 = 0.3346 | x2 = 0.5026 | x2 = 0.6636
293.15 K | 35.2 | 92.1 | –
298.15 K | 29 | 72.1 | 213.4
303.15 K | – | 57.4 | 158.1
308.15 K | 20.4 | 46.4 | 119.8
313.15 K | – | 38.2 | 92.7
318.15 K | 14.99 | – | 73
323.15 K | 13.02 | – | 58.4
328.15 K | 11.4 | 22.58 | 47.5
333.15 K | 10.04 | – | –
338.15 K | – | – | 32.6
343.15 K | 7.94 | 14.53 | 27.5
348.15 K | 7.13 | – | 23.56
353.15 K | – | 11.25 | 20.29

Reference: a compilation of properties of binary mixtures (doi:10.1021/acs.jced.0c00588)
